Source: the NIST ThermoML archive (doi:10.1021/acs.jced.5b00623)
Several values for one entry are separate records, joined by “and”; a condition that tells them apart may be missing. Equal values may be shown once.

Settings: for mass density: Buoyancy - hydrostatic balance with magnetic suspension - two sinkers; for vapor or sublimation pressure: Closed cell (Static) method; for speed of sound: Spherical resonator

O=C(C(F)(F)C(F)(F)F)C(F)(C(F)(F)F)C(F)(F)F [dodecafluoro-2-methylpentan-3-one]
Settings | mass density [kg/m3] | speed of sound [m/s]
400.01 K, 16056 kPa, Liquid | 1413.68 | –
400.01 K, 24343 kPa, Liquid | 1465.04 | –
400.05 K, 54.88 kPa, Gas | – | 102.64
400.05 K, 54.92 kPa, Gas | – | 102.64
400.05 K, 154.66 kPa, Gas | – | 99.83
400.05 K, 252.99 kPa, Gas | – | 96.94
400.05 K, 354.19 kPa, Gas | – | 93.75
400.05 K, 451.42 kPa, Gas | – | 90.4
400.05 K, 554.73 kPa, Gas | – | 86.45
400.05 K, 667.8 kPa, Gas | – | 81.52
402 K, 14323 kPa, Liquid | 1395.32 | –
410.01 K, 16854 kPa, Liquid | 1394.24 | –
420 K, 19987 kPa, Liquid | 1392.85 | –
420.02 K, 6075.7 kPa, Liquid | 1241.69 | –
425.04 K, 60.31 kPa, Gas | – | 105.94
425.04 K, 144.61 kPa, Gas | – | 104
425.04 K, 258 kPa, Gas | – | 101.36
425.04 K, 399.11 kPa, Gas | – | 97.86
425.04 K, 546.05 kPa, Gas | – | 93.91
425.04 K, 696.35 kPa, Gas | – | 89.45
425.04 K, 845.73 kPa, Gas | – | 84.47
425.04 K, 951.86 kPa, Gas | – | 80.49
425.04 K, 1061.7 kPa, Gas | – | 75.84
429.99 K, 8117.7 kPa, Liquid | 1240.57 | –
430.02 K, 23113 kPa, Liquid | 1391.48 | –
440 K, 10172 kPa, Liquid | 1239.42 | –
440.01 K, 26214 kPa, Liquid | 1390.14 | –
449.97 K, 1492 kPa, Gas | – | 74.05
449.98 K, 99.8 kPa, Gas | – | 108.43
449.98 K, 296.98 kPa, Gas | – | 104.72
449.98 K, 499.37 kPa, Gas | – | 100.64
449.98 K, 701.04 kPa, Gas | – | 96.26
449.98 K, 901.63 kPa, Gas | – | 91.5
449.98 K, 1104.8 kPa, Gas | – | 86.19
449.98 K, 1292.1 kPa, Gas | – | 80.71
449.98 K, 1680.8 kPa, Gas | – | 66.68
450 K, 12226 kPa, Gas | 1238.27 | –
450.01 K, 394.1 kPa, Gas | 35.895 | –
450.01 K, 913.4 kPa, Gas | 93.929 | –
450.01 K, 1478.4 kPa, Gas | 185.135 | –
450.01 K, 2042.6 kPa, Gas | 417.845 | –
450.01 K, 2500.6 kPa, Gas | 856.702 | –
450.01 K, 2998.2 kPa, Gas | 943.857 | –
450.01 K, 3997.1 kPa, Gas | 1026.46 | –
450.01 K, 4993.9 kPa, Gas | 1075.63 | –
450.01 K, 5983.6 kPa, Gas | 1111.42 | –
450.01 K, 8215.2 kPa, Gas | 1169.39 | –
450.01 K, 12010 kPa, Gas | 1235.17 | –
450.01 K, 15954 kPa, Gas | 1283.62 | –
450.01 K, 19948 kPa, Gas | 1321.88 | –
450.01 K, 29286 kPa, Gas | 1388.75 | –
460 K, 14282 kPa, Gas | 1237.17 | –
469.99 K, 2186.2 kPa, Gas | 306.462 | –
469.99 K, 2797.9 kPa, Gas | 560.84 | –
469.99 K, 3424.1 kPa, Gas | 779.472 | –
469.99 K, 6087.4 kPa, Gas | 1018.11 | –
470 K, 680 kPa, Gas | 61.543 | –
470 K, 1356.4 kPa, Gas | 142.264 | –
470 K, 4374.3 kPa, Gas | 910.538 | –
470 K, 7969.1 kPa, Gas | 1085.6 | –
470 K, 9768.9 kPa, Gas | 1131.11 | –
470 K, 11977 kPa, Gas | 1173.86 | –
470 K, 14031 kPa, Gas | 1205.91 | –
470 K, 16332 kPa, Gas | 1236.02 | –
475.01 K, 147.79 kPa, Gas | – | 110.98
475.01 K, 349.5 kPa, Gas | – | 107.83
475.01 K, 501.76 kPa, Gas | – | 105.38
475.01 K, 501.77 kPa, Gas | – | 105.38
475.01 K, 501.78 kPa, Gas | – | 105.38
475.01 K, 501.8 kPa, Gas | – | 105.38
475.01 K, 697.46 kPa, Gas | – | 102.08
475.01 K, 898.52 kPa, Gas | – | 98.51
475.01 K, 1150.9 kPa, Gas | – | 93.77
475.01 K, 1296.2 kPa, Gas | – | 90.92
475.01 K, 1496.6 kPa, Gas | – | 86.78
475.01 K, 1685 kPa, Gas | – | 82.69
500.01 K, 103.24 kPa, Gas | – | 114.77
500.01 K, 301.45 kPa, Gas | – | 112.25
500.01 K, 502.44 kPa, Gas | – | 109.63
500.01 K, 502.55 kPa, Gas | – | 109.63
500.01 K, 502.62 kPa, Gas | – | 109.63
500.01 K, 502.7 kPa, Gas | – | 109.63
500.01 K, 502.81 kPa, Gas | – | 109.64
500.01 K, 503 kPa, Gas | – | 109.64
500.01 K, 703.51 kPa, Gas | – | 106.95
500.01 K, 893.84 kPa, Gas | – | 104.33
500.01 K, 1100.4 kPa, Gas | – | 101.42
500.01 K, 1100.8 kPa, Gas | – | 101.42
500.01 K, 1308.1 kPa, Gas | – | 98.44
500.01 K, 1503.6 kPa, Gas | – | 95.59
500.01 K, 1746.5 kPa, Gas | – | 92
500.02 K, 1746.7 kPa, Gas | – | 92
500.02 K, 1746.9 kPa, Gas | – | 91.99

Liquid
Settings | vapor or sublimation pressure
400.01 K | 826 kPa
410.02 K | 1016 kPa
410.03 K | 1014.3 kPa
420.02 K | 1238.2 kPa and 1238.3 kPa
